Test results from PMC5285354, “Cationic Net Charge and Counter Ion Type as Antimicrobial Activity Determinant Factors of Short Lipopeptides” (Frontiers in Microbiology, 2017).
≈ marks a conversion by molar mass, not a printed value. Where two headings read alike, the source gives them in different places. Where a SMILES comes first, the peptide text is derived from it. The star is where a group is joined. Lauroyl = CCCCCCCCCCCC(=O)*; Decanoyl = CCCCCCCCCC(=O)*

Experiments:
Assay type in all cases: cell-based
[1] = tested on: Aspergillus brasiliensis (ATCC 16404); settings: ATCC 16404, 48 h
Method: (§1) The minimum inhibitory concentration (MIC), minimum bactericidal concentration (MBC) and minimum fungicidal concentration (MFC) were determined according to the procedure recommended by the Clinical Laboratory Standards Institute (CLSI). The following reference strains were tested: Gram-negative E. coli (ATCC 25922), K. pneumoniae (ATCC 700603), P. vulgaris (PCM 2668), P. aeruginosa (ATCC 9027), Gram-positive S. aureus (ATCC 25923), S. epidermidis (PCM 2118), B. subtilis (ATCC 6633), E. faecalis (ATCC 29212) and fungi C. albicans (ATCC 10231), C. tropicalis (PCM 2681), and A. brasiliensis (ATCC 16404). All the microorganisms were from the Polish Collection of Microorganisms (Wroclaw, Poland). MIC was determined using a microbroth dilution method with Mueller-Hinton (MH) broth for bacteria and Sabouraud Dextrose broth for fungi (Becton Dickinson, Le Pont de Claix, France). An initial inoculum of 10^5 cfu/mL was used for bacteria and 10^3 cfu/mL for fungi. Polypropylene 96-well plates (Kartell, Noviglio, Italy) were incubated for 18 h at 37°C for bacteria and for 48 h at 25°C for the tested fungi. MIC (μg/mL) was taken as the lowest concentration of the lipopeptide, at which the observable growth was inhibited. […] The experiments were performed in triplicate on three different days.

[2] = tested on: Bacillus subtilis (ATCC 6633); settings: for MIC Bacillus subtillis: ATCC 6633, 18 h; for MBC Bacillus subtillis: ATCC 6633, 24 h
Method: as §1

[3] = tested on: Candida albicans (ATCC 10231); settings: ATCC 10231, 48 h
Method: as §1

[4] = tested on: Candida tropicalis (PCM 2681); settings: PCM 2681, 48 h
Method: as §1

[5] = tested on: Enterococcus faecalis (ATCC 29212)
Method: as §1

[6] = tested on: Escherichia coli (ATCC 25922)
Method: as §1

[7] = tested on: Klebsiella pneumoniae (ATCC 700603)
Method: as §1

[8] = tested on: Proteus vulgaris (PCM 2668); settings: PCM 2668, TFA salt, triplicate; for MIC Proteus vulgaris: Mueller-Hinton broth, 10^5 cfu/mL, 18 h 37°C; for MBC Proteus vulgaris: subculture on Mueller-Hinton II Agar, 24 h 37°C
Method: as §1

[9] = tested on: Pseudomonas aeruginosa (ATCC 9027); settings: ATCC 9027, 18 h
Method: as §1

[10] = tested on: Staphylococcus aureus (ATCC 25923)
Method: as §1

[11] = tested on: Staphylococcus epidermidis (PCM 2118); settings: for MIC Staphylococcus epidermidis: PCM 2118, 18 h; for MBC Staphylococcus epidermidis: PCM 2118, 24 h
Method: as §1

[12] = tested on: Pseudomonas aeruginosa (ATCC 9027); settings: ATCC 9027, 24 h
[13] = tested on: human red blood cells; settings: 1 h
Method: The hemolytic activity of the lipopeptides was determined by exposing human red blood cells (4% v/v) to tested compounds at graded concentrations. Red blood cells were obtained from a healthy donor. EDTA was used to prevent the blood clotting. The plasma was removed via centrifugation and the erythrocytes were washed three times with PBS. The red blood cells were suspended in PBS and incubated with different concentrations of lipopeptides at 37°C for 1 h and centrifuged for 5 min at 1000 × g. The supernatants were transferred to a sterile 96-well plate and hemoglobin release was measured with an Epoch microplate spectrophotometer (BioTek, USA) by recording the absorbance at 550 nm. A 0.1% Triton X-100 solution was used as the positive control (100% of hemolysis) and pure PBS as the negative (0% of hemolysis). Minimum hemolytic concentration (MHC) was taken as the lowest concentration which induced 10% of hemolysis.

[14] = ATCC 29212, TFA salt, subculture on Mueller-Hinton II Agar, 24 h 37°C, triplicate
[15] = ATCC 25922, TFA salt, Mueller-Hinton broth, 10^5 cfu/mL, 18 h 37°C, triplicate
[16] = ATCC 25922, TFA salt, subculture on Mueller-Hinton II Agar, 24 h 37°C, triplicate
[17] = ATCC 25923, TFA salt, MIC wells subcultured on Mueller-Hinton II Agar, 24 h 37°C, triplicate
[18] = ATCC 25923, TFA salt, Mueller-Hinton broth, 10^5 cfu/mL, 18 h 37°C, triplicate on three days

MIC Aspergillus brasiliensis [1] [µg/mL] | MIC Bacillus subtillis [2] [µg/mL] | MIC Candida albicans [3] [µg/mL] | MIC Candida tropicalis [4] [µg/mL] | MIC Enterococcus fecalis ([5]; ATCC 29212, 18 h) [µg/mL] | MIC Klebsiella pneumoniae ([7]; ATCC 700603, 18 h) [µg/mL] | MIC Proteus vulgaris [8] [µg/mL] | MIC Pseudomonas aeruginosa [9] [µg/mL] | MIC Staphylococcus epidermidis [11] [µg/mL] | Compound | MFC Aspergillus brasiliensis [1] [µg/mL] | MBC Bacillus subtillis [2] [µg/mL] | MFC Candida albicans [3] [µg/mL] | MFC Candida tropicalis [4] [µg/mL] | MBC Klebsiella pneumoniae ([7]; ATCC 700603, 24 h) [µg/mL] | MBC Proteus vulgaris [8] [µg/mL] | MBC Staphylococcus epidermidis [11] [µg/mL] | MBC Pseudomonas aeruginosa [12] [µg/mL] | Hemolysis HC10 (MHC), concentration of lipopeptide inducing 10% of hemolysis [13] [µg/mL] | MBC Escherichia coli ([6]; ATCC 25922, 24 h) [µg/mL] | MBC Staphylococcus aureus ([10]; ATCC 25923, 24 h) [µg/mL] | further results
1000 (≈ 1850 µM) | 512 (≈ 945 µM) | 1000 (≈ 1850 µM) | 512 (≈ 945 µM) | 2000 (≈ 3690 µM) | 2000 (≈ 3690 µM) | >2000 | 1000 (≈ 1850 µM) | 512 (≈ 945 µM) | CCCCCCCCCC(=O)N[C@@H](CCCCN)C(=O)NCC(=O)N[C@@H](CCCCN)C(=O)NCC(N)=O [C10-KGKG-NH2] (Decanoyl-KGKG-NH2) | 2000 (≈ 3690 µM) | 1000 (≈ 1850 µM) | 2000 (≈ 3690 µM) | 2000 (≈ 3690 µM) | 2000 (≈ 3690 µM) | >2000 | 512 (≈ 945 µM) | 2000 (≈ 3690 µM) |  |  |  | MBC Enterococcus fecalis [5, 14]: >2000 µg/mL; MIC Escherichia coli [6, 15]: >2000 µg/mL; MBC Escherichia coli [6, 16]: >2000 µg/mL; MBC Staphylococcus aureus [10, 17]: >2000 µg/mL; MIC Staphylococcus aureus [10, 18]: >2000 µg/mL
1000 (≈ 2340 µM) | 256 (≈ 599 µM) | 2000 (≈ 4680 µM) | 1000 (≈ 2340 µM) |  |  | >2000 | 2000 (≈ 4680 µM) | 256 (≈ 599 µM) | CCCCCCCCCC(=O)N[C@@H](CCCCN)C(=O)N[C@@H](CCCCN)C(N)=O [C10-KK-NH2] | 1000 (≈ 2340 µM) | 512 (≈ 1200 µM) | 2000 (≈ 4680 µM) | 1000 (≈ 2340 µM) |  | >2000 | 512 (≈ 1200 µM) | 2000 (≈ 4680 µM) | 4000 |  |  | MIC Enterococcus fecalis ([5]; ATCC 29212, TFA salt, Mueller-Hinton broth, 10^5 cfu/mL, 18 h 37°C, triplicate): >2000 µg/mL; MBC Enterococcus fecalis [5, 14]: >2000 µg/mL; MIC Escherichia coli [6, 15]: >2000 µg/mL; MBC Escherichia coli [6, 16]: >2000 µg/mL; MIC Klebsiella pneumoniae ([7]; ATCC 700603, TFA salt, Mueller-Hinton broth, 10^5 cfu/mL, 18 h 37°C, triplicate): >2000 µg/mL; MBC Klebsiella pneumoniae ([7]; ATCC 700603, TFA salt, subculture on Mueller-Hinton II Agar, 24 h 37°C, triplicate): >2000 µg/mL; MBC Staphylococcus aureus [10, 17]: >2000 µg/mL; MIC Staphylococcus aureus [10, 18]: >2000 µg/mL
1000 (≈ 1950 µM) | 512 (≈ 999 µM) | 2000 (≈ 3900 µM) | 2000 (≈ 3900 µM) |  |  | >2000 | 1000 (≈ 1950 µM) | 64 (≈ 125 µM) | CCCCCCCCCCCC(=O)N[C@@H](CCCCN)C(=O)NCC(=O)N[C@@H](CCCCN)C(N)=O [C12-KGK-NH2] (Lauroyl-Lys-Gly-Lys-NH2) | 2000 (≈ 3900 µM) | 1000 (≈ 1950 µM) | 2000 (≈ 3900 µM) | 2000 (≈ 3900 µM) | 1000 (≈ 1950 µM) |  | 128 (≈ 250 µM) | 1000 (≈ 1950 µM) | 1000 | 1000 (≈ 1950 µM) | 1000 (≈ 1950 µM) | 
2000 (≈ 4390 µM) | 64 (≈ 140 µM) | 1000 (≈ 2190 µM) | 1000 (≈ 2190 µM) | 512 (≈ 1120 µM) | 2000 (≈ 4390 µM) | >2000 | 2000 (≈ 4390 µM) | 64 (≈ 140 µM) | CCCCCCCCCCCC(=O)N[C@@H](CCCCN)C(=O)N[C@@H](CCCCN)C(N)=O [C12-KK-NH2] | 2000 (≈ 4390 µM) | 128 (≈ 281 µM) | 2000 (≈ 4390 µM) | 2000 (≈ 4390 µM) | 2000 (≈ 4390 µM) | >2000 | 64 (≈ 140 µM) | 2000 (≈ 4390 µM) |  | 2000 (≈ 4390 µM) | 2000 (≈ 4390 µM) | MBC Enterococcus fecalis ([5]; ATCC 29212, 24 h): 512 µg/mL (≈ 1120 µM); MIC Escherichia coli ([6]; ATCC 25922, 18 h): 2000 µg/mL (≈ 4390 µM); MIC Staphylococcus aureus ([10]; ATCC 25923, 18 h): 2000 µg/mL (≈ 4390 µM)
512 (≈ 877 µM) | 64 (≈ 110 µM) | 1000 (≈ 1710 µM) | 1000 (≈ 1710 µM) | 512 (≈ 877 µM) | 1000 (≈ 1710 µM) | >2000 | 512 (≈ 877 µM) | 64 (≈ 110 µM) | CCCCCCCCCCCC(=O)N[C@@H](CCCCN)C(=O)N[C@@H](CCCCN)C(=O)N[C@@H](CCCCN)C(N)=O [C12-KKK-NH2] | 512 (≈ 877 µM) | 128 (≈ 219 µM) | 1000 (≈ 1710 µM) | 1000 (≈ 1710 µM) | 1000 (≈ 1710 µM) |  | 64 (≈ 110 µM) |  | 512 | 1000 (≈ 1710 µM) | 1000 (≈ 1710 µM) | MBC Enterococcus fecalis ([5]; ATCC 29212, 24 h): 512 µg/mL (≈ 877 µM); MIC Staphylococcus aureus ([10]; ATCC 25923, 18 h): 1000 µg/mL (≈ 1710 µM)
128 (≈ 180 µM) | 128 (≈ 180 µM) | 256 (≈ 360 µM) | 256 (≈ 360 µM) | 512 (≈ 719 µM) |  | >2000 |  | 64 (≈ 89.9 µM) | CCCCCCCCCCCC(=O)N[C@@H](CCCCN)C(=O)N[C@@H](CCCCN)C(=O)N[C@@H](CCCCN)C(=O)N[C@@H](CCCCN)C(N)=O [C12-KKKK-NH2] (Lauroyl-KKKK-NH2) | 256 (≈ 360 µM) | 256 (≈ 360 µM) | 256 (≈ 360 µM) | 512 (≈ 719 µM) | 1000 (≈ 1400 µM) |  | 64 (≈ 89.9 µM) |  | 1000 | 256 (≈ 360 µM) | 1000 (≈ 1400 µM) | MBC Enterococcus fecalis ([5]; ATCC 29212, 24 h): 512 µg/mL (≈ 719 µM); MIC Escherichia coli ([6]; ATCC 25922, 18 h): 256 µg/mL (≈ 360 µM); MIC Staphylococcus aureus ([10]; ATCC 25923, 18 h): 1000 µg/mL (≈ 1400 µM)
